Results reported in ChEMBL document CHEMBL1201862, “PubChem BioAssay data set” (2004).
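Assay format: 96-well plates, 48-hour exposure. At the GI50, growth is halved.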 The source made the active and inactive calls. Rule as the data show it: active = GI50 up to about 1.1 µM and inactive = higher.

What was measured:
Assay in all cases: NCI tumour cell line growth inhibition, 48 h
[1] = test system: 786-0
[2] = test system: A498
[3] = test system: ACHN
[4] = test system: BT-549
[5] = test system: COLO 205
[6] = test system: DU-145
[7] = test system: HL-60
[8] = test system: HOP-92
[9] = test system: M14
[10] = test system: MDA-MB-231
[11] = test system: NCI-H23
[12] = test system: OVCAR-4
[13] = test system: OVCAR-8
[14] = test system: PC-3
[15] = test system: RXF 393
[16] = test system: SK-MEL-28
[17] = test system: TK-10
[18] = test system: U-251
[19] = test system: UACC-62
[20] = test system: UO-31

Compound	GI50 [1]	GI50 [2]	GI50 [3]	GI50 [4]	GI50 [5]	GI50 [6]	GI50 [7]	GI50 [8]	GI50 [9]	GI50 [10]	GI50 [11]	GI50 [12]	GI50 [13]	GI50 [14]	GI50 [15]	GI50 [16]	GI50 [17]	GI50 [18]	GI50 [19]	GI50 [20]
O=[N+]([O-])c1cccc2nc3ccccc3c(NCCCN3CCCCC3)c12	< 0.01 µM (active)	< 0.0115 µM (active)	0.0139 µM (active)	0.0286 µM (active)	< 0.0107 µM (active)	< 0.01 µM (active)	0.0252 µM (active)	< 0.01 µM (active)	0.0116 µM (active)	0.016 µM (active)	< 0.01 µM (active)	< 0.01 µM (active)	0.0132 µM (active)	< 0.01 µM (active)	0.0101 µM (active)	0.0417 µM (active)	0.0256 µM (active)	< 0.0135 µM (active)	0.0151 µM (active)	0.0237 µM (active)
CNC(C#N)c1ccc(OC)cc1 (stereo not given)	> 100 µM (inactive)	> 100 µM (inactive)	> 100 µM (inactive)	> 100 µM (inactive)	71.3 µM (inactive)	> 100 µM (inactive)	28.6 µM (inactive)	92.5 µM (inactive)	> 100 µM (inactive)	> 100 µM (inactive)	> 100 µM (inactive)	> 100 µM (inactive)	> 100 µM (inactive)	54 µM (inactive)	> 100 µM (inactive)	> 100 µM (inactive)	> 100 µM (inactive)	53.3 µM (inactive)	> 100 µM (inactive)	> 100 µM (inactive)
Cc1ccc2nc(C(=O)O)c(=O)[nH]c2c1	> 100 µM (inactive)	> 100 µM (inactive)	> 100 µM (inactive)	> 100 µM (inactive)	> 100 µM (inactive)	> 100 µM (inactive)	> 100 µM (inactive)	> 100 µM (inactive)	> 100 µM (inactive)	> 100 µM (inactive)	> 100 µM (inactive)	> 100 µM (inactive)	> 100 µM (inactive)	> 100 µM (inactive)	> 100 µM (inactive)	> 100 µM (inactive)	> 100 µM (inactive)	> 100 µM (inactive)	> 100 µM (inactive)	> 100 µM (inactive)
C=C1c2nc3ccccc3n2C=C(c2ccc(Cl)cc2)N1c1ccccc1	13.3 µM (inactive)	37.2 µM (inactive)	12.3 µM (inactive)	6.64 µM (inactive)	29.6 µM (inactive)	32.5 µM (inactive)	41.1 µM (inactive)	20.7 µM (inactive)	16.3 µM (inactive)	27.2 µM (inactive)	11.7 µM (inactive)	10.5 µM (inactive)	9.51 µM (inactive)	26.4 µM (inactive)	16.1 µM (inactive)	11.7 µM (inactive)	12.4 µM (inactive)	18.7 µM (inactive)	18.3 µM (inactive)	13.4 µM (inactive)
